# Reference: PubChem BioAssay (NCI)
# Values joined by “and” are separate entries in the source; they are usually repeats but may differ in a detail not shown here. Identical values can stand only once.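 Compound exposure: 48 hours, 5 concentrations, 96-well plates. Here, GI50 denotes the concentration required for 50% inhibition of growth. TGI marks complete inhibition of growth.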
# Tested on: EKVX NSCLC
# Assay: NCI-60 cell line screen, 48 h
SMILES,TGI,GI50
COC(=O)CC[N+]1=CCC(c2ccccc2)(c2ccccc2)O1,> 100 µM,
CCC[CH2][Sn]([CH2]CCC)([S]c1cccc2cccnc12)[S]c1cccc2cccnc12,1.45 µM,0.336 µM
OCC1=CC(NC2CC(CO)C(O)C(O)C2O)C(O)C(O)C1O (stereo not drawn),> 100 µM,
Nc1ccccc1S(=O)(=O)N(CC(=O)O)c1ccccc1,> 100 µM,
CCOC(=O)C(C)(C)Oc1ccc2c(-c3ccccc3)cc(=O)oc2c1,> 100 µM,
CNS(=O)(=O)NNS(=O)(=O)c1ccccc1,> 100 µM,
O=C(O)CCC(NC(=O)c1ccc(Nc2nc3ccccc3nc2-c2cccs2)cc1)C(=O)O (stereo not drawn),> 100 µM,
NC1=NCCC1(c1ccccc1)c1ccccn1 (stereo not drawn),> 100 µM,
CNC(=S)OCCC(C)CCCC(C)C (stereo not drawn),31.7 µM,
COC(=O)/C(C#N)=C1\NC(=O)c2ccccc21,> 100 µM,

# Tested on: SK-MEL-28 melanoma
# Assay: NCI-60 cell line screen, 48 h
SMILES,TGI,GI50
COc1cc2c(c3oc4c(O)cccc4c(=O)c13)CC(C(C)(O)CO)O2 (stereo not drawn),> 100 µM,
CC(=O)OC1OC([C@@H]2c3cccc(O)c3C(=O)c3c(O)cc(C)cc32)C(O)C(O)C1O (stereo partly drawn),3.6 µM,0.0514 µM
Cc1c(C(=O)C/C(=N/NC(=O)c2ccccc2O)C(=O)Nc2ccccc2C(C)C)[n+](=O)c2ccccc2n1[O-],> 100 µM,
CCCCCCCCCCCC(=O)OCCOCCOCCOCCOCCOCc1ccccc1,> 100 µM,
O=C(CCc1nc(=S)[nH][nH]1)Nc1cc(Cl)c(Cl)cc1Cl,> 100 µM,
CN1CCCCC1CCN1c2ccccc2Sc2ccc(Cl)cc21 (stereo not drawn),5.9 µM,2.23 µM
O=C(Nc1nc2ccc([N+](=O)[O-])cc2s1)C(=O)C(C1OC(=O)c2ccccc21)[N+](=O)[O-] (stereo not drawn),> 100 µM,
O=C(CCc1nc(=S)[nH][nH]1)Nc1ccc(Cl)c(Cl)c1,> 100 µM,
COC(=O)C1(C(C)C)CCc2c(OC)ccc(OC)c2C1=O (stereo not drawn),> 100 µM,
FC(F)(F)c1cccc(Nc2nc(-c3ccccc3)nc3ncccc23)c1,74.4 µM,7.93 µM
COC(=O)c1ccccc1NC(=O)C(=O)Cc1nc2c3c(ccc2[nH]c1=O)C(=O)c1ccccc1C3=O,> 100 µM,
Cc1ccc(S(=O)(=O)OC[C@@H]2CO2)cc1,> 100 µM,
COc1cc2cc(OC)c3cc4c(cc3c2c(OC)c1OC)OCO4,> 57.6 µM,
C=CCO[C@H]1CO[C@H]2[C@@H]1OC[C@@H]2Oc1ccc(Nc2ccnc(Nc3ccc(O[C@H]4CO[C@H]5[C@@H]4OC[C@@H]5OCC=C)c(Cl)c3)n2)cc1Cl,3.16 µM,1.73 µM
CCCCCCCCCCCCCC(=O)OC(/C=C/C(C)C)C(O)C(O)C(OC)C(=O)NC1CCCCN(C)C1=O (stereo not drawn),7.64 µM and > 49 µM,> 49 µM
CC1(C(=O)O)CCC[C@@]2(C)C1CC[C@@]1(C)c3cocc3CCC21 (stereo partly drawn),> 100 µM,
CCn1c(C)nn2c(=O)c3ccccc3nc2c1=O,> 100 µM,
CCOC(=O)CCC1(C(=O)OCC)CCCCC1=O (stereo not drawn),> 100 µM,
CCN(CC)CCSc1c2ccccc2nc2cc(NCC(=O)Nc3ccccc3-c3ccccc3NC(=O)CNc3ccc4c(SCCN(CC)CC)c5ccccc5nc4c3)ccc12,> 100 µM,
Cc1nc2c(ccc3ncccc32)[nH]1,> 100 µM,

SMILES,TGI,GI50
O=C(CCNC12CC3CC(CC(C3)C1)C2)c1ccccc1,75.4 µM,
Cc1ccsc1C(=S)Nc1ccc(Cl)c(/C=N/OC(C)(C)C)c1,> 100 µM,
Cc1cc(N(CCC#N)CCC#N)ccc1N=Nc1ccc(S(N)(=O)=O)cc1,> 100 µM,
CC(=O)[CH-]C(=O)c1ccccc1.CC(=O)[CH-]C(=O)c1ccccc1.CN(C)c1ccc([O-])cc1.CN(C)c1ccc([O-])cc1.Cl.[Ti+4],> 31.6 µM,> 31.6 µM
CC1(C)C(=O)/C=C\C(=O)C(C)(C)C2=CC=C(O2)C(C)(C)C(=O)/C=C\C(=O)C(C)(C)C2=CC=C1O2,> 100 µM,
NC(=O)NO.O.O.O.O.O.O.O.O.O.O.O.[Ge].[Ge].[Ge].[Ge].[Ge].[O]=[Ge].[O]=[Ge].[O]=[Ge].[O]=[Ge].[O]=[Ge][OH],> 100 µM,
CN(C)C(=S)N=C(Nc1ccccc1)Nc1ccccc1,> 100 µM,
COC(=O)CC[N+]1=CCC(c2ccccc2)(c2ccccc2)O1,> 100 µM,
CCC[CH2][Sn]([CH2]CCC)([S]c1cccc2cccnc12)[S]c1cccc2cccnc12,0.472 µM,0.16 µM
OCC1=CC(NC2CC(CO)C(O)C(O)C2O)C(O)C(O)C1O (stereo not drawn),> 100 µM,
Nc1ccccc1S(=O)(=O)N(CC(=O)O)c1ccccc1,> 100 µM,
CCOC(=O)C(C)(C)Oc1ccc2c(-c3ccccc3)cc(=O)oc2c1,> 100 µM,
CNS(=O)(=O)NNS(=O)(=O)c1ccccc1,> 100 µM,
Cc1cc(NS(=O)(=O)c2ccc(Nc3c4ccccc4nc4c(C(=O)N5CCN(CCOS(C)(=O)=O)CC5)cccc34)cc2)no1,> 100 µM,
O=C(O)CCC(NC(=O)c1ccc(Nc2nc3ccccc3nc2-c2cccs2)cc1)C(=O)O (stereo not drawn),> 100 µM,
NC1=NCCC1(c1ccccc1)c1ccccn1 (stereo not drawn),> 100 µM,
CC1CCc2nc[nH]c(=O)c21 (stereo not drawn),> 100 µM,> 100 µM
CNC(=S)OCCC(C)CCCC(C)C (stereo not drawn),41 µM,
COC(=O)/C(C#N)=C1\NC(=O)c2ccccc21,> 100 µM,

# Tested on: U251 CNS
# Assay: NCI-60 cell line screen, 48 h
SMILES,TGI,GI50
COc1cc2c(c3oc4c(O)cccc4c(=O)c13)CC(C(C)(O)CO)O2 (stereo not drawn),> 100 µM,
CC(=O)OC1OC([C@@H]2c3cccc(O)c3C(=O)c3c(O)cc(C)cc32)C(O)C(O)C1O (stereo partly drawn),0.257 µM,< 0.0152 µM
Cc1c(C(=O)C/C(=N/NC(=O)c2ccccc2O)C(=O)Nc2ccccc2C(C)C)[n+](=O)c2ccccc2n1[O-],> 100 µM,
CCCCCCCCCCCC(=O)OCCOCCOCCOCCOCCOCc1ccccc1,> 100 µM,
CCCC1C(=O)CCc2c(OC)ccc(OC)c21 (stereo not drawn),> 100 µM,
O=C(CCc1nc(=S)[nH][nH]1)Nc1cc(Cl)c(Cl)cc1Cl,> 100 µM,
CN1CCCCC1CCN1c2ccccc2Sc2ccc(Cl)cc21 (stereo not drawn),6.76 µM,2.59 µM
O=C(Nc1nc2ccc([N+](=O)[O-])cc2s1)C(=O)C(C1OC(=O)c2ccccc21)[N+](=O)[O-] (stereo not drawn),> 100 µM,
O=C(CCc1nc(=S)[nH][nH]1)Nc1ccc(Cl)c(Cl)c1,> 100 µM,
COC(=O)C1(C(C)C)CCc2c(OC)ccc(OC)c2C1=O (stereo not drawn),> 100 µM,
FC(F)(F)c1cccc(Nc2nc(-c3ccccc3)nc3ncccc23)c1,14.7 µM,3.52 µM
COC(=O)c1ccccc1NC(=O)C(=O)Cc1nc2c3c(ccc2[nH]c1=O)C(=O)c1ccccc1C3=O,35.9 µM,
COc1cc2cc(OC)c3cc4c(cc3c2c(OC)c1OC)OCO4,> 59.3 µM,
O=C(CC(=O)c1cccc2ccccc12)C(=O)Nc1ccc(Cl)cc1,> 100 µM,
C=CCO[C@H]1CO[C@H]2[C@@H]1OC[C@@H]2Oc1ccc(Nc2ccnc(Nc3ccc(O[C@H]4CO[C@H]5[C@@H]4OC[C@@H]5OCC=C)c(Cl)c3)n2)cc1Cl,3.83 µM,1.85 µM
CCCCCCCCCCCCCC(=O)OC(/C=C/C(C)C)C(O)C(O)C(OC)C(=O)NC1CCCCN(C)C1=O (stereo not drawn),6.43 µM and > 49 µM,
CC1(C(=O)O)CCC[C@@]2(C)C1CC[C@@]1(C)c3cocc3CCC21 (stereo partly drawn),> 100 µM,
CCn1c(C)nn2c(=O)c3ccccc3nc2c1=O,> 100 µM,
CCOC(=O)CCC1(C(=O)OCC)CCCCC1=O (stereo not drawn),> 100 µM,
CCN(CC)CCSc1c2ccccc2nc2cc(NCC(=O)Nc3ccccc3-c3ccccc3NC(=O)CNc3ccc4c(SCCN(CC)CC)c5ccccc5nc4c3)ccc12,> 100 µM,

SMILES,TGI,GI50
Cc1nc2c(ccc3ncccc32)[nH]1,> 100 µM,
O=C(CCNC12CC3CC(CC(C3)C1)C2)c1ccccc1,31.9 µM,
Cc1ccsc1C(=S)Nc1ccc(Cl)c(/C=N/OC(C)(C)C)c1,79.3 µM,
Cc1cc(N(CCC#N)CCC#N)ccc1N=Nc1ccc(S(N)(=O)=O)cc1,> 100 µM,
CC(=O)[CH-]C(=O)c1ccccc1.CC(=O)[CH-]C(=O)c1ccccc1.CN(C)c1ccc([O-])cc1.CN(C)c1ccc([O-])cc1.Cl.[Ti+4],> 31.6 µM,> 31.6 µM
CC1(C)C(=O)/C=C\C(=O)C(C)(C)C2=CC=C(O2)C(C)(C)C(=O)/C=C\C(=O)C(C)(C)C2=CC=C1O2,> 100 µM,
NC(=O)NO.O.O.O.O.O.O.O.O.O.O.O.[Ge].[Ge].[Ge].[Ge].[Ge].[O]=[Ge].[O]=[Ge].[O]=[Ge].[O]=[Ge].[O]=[Ge][OH],69.9 µM,
CN(C)C(=S)N=C(Nc1ccccc1)Nc1ccccc1,> 100 µM,
COC(=O)CC[N+]1=CCC(c2ccccc2)(c2ccccc2)O1,> 100 µM,
CCC[CH2][Sn]([CH2]CCC)([S]c1cccc2cccnc12)[S]c1cccc2cccnc12,0.409 µM,0.197 µM
OCC1=CC(NC2CC(CO)C(O)C(O)C2O)C(O)C(O)C1O (stereo not drawn),> 100 µM,
Nc1ccccc1S(=O)(=O)N(CC(=O)O)c1ccccc1,> 100 µM,
CCOC(=O)C(C)(C)Oc1ccc2c(-c3ccccc3)cc(=O)oc2c1,> 100 µM,
CNS(=O)(=O)NNS(=O)(=O)c1ccccc1,> 100 µM,
Cc1cc(NS(=O)(=O)c2ccc(Nc3c4ccccc4nc4c(C(=O)N5CCN(CCOS(C)(=O)=O)CC5)cccc34)cc2)no1,> 100 µM,
O=C(O)CCC(NC(=O)c1ccc(Nc2nc3ccccc3nc2-c2cccs2)cc1)C(=O)O (stereo not drawn),> 100 µM,
NC1=NCCC1(c1ccccc1)c1ccccn1 (stereo not drawn),> 100 µM,
CNC(=S)OCCC(C)CCCC(C)C (stereo not drawn),30.1 µM,
COC(=O)/C(C#N)=C1\NC(=O)c2ccccc21,> 100 µM,
